Measurements from patent US11718610B2, “Compounds containing benzosultam” (MEDSHINE DISCOVERY INC., priority 2020, dated 2023).

Key:
HCT116 cells = experiment: HCT116 (Kras G13D) antiproliferative activity experiment (CellTiter Glo); assay type: cell-based; conditions: Homo sapiens, HCT-116, 72 h, cultured 3 days
Method: Experimental Embodiment 2: HCT116 (Kras^G13D) Antiproliferative Activity Experiment
(1) cell culture medium: 89% Mc′Coy 5A, 10% fetal bovine serum and 1% penicillin-streptomycin;
(2) culture medium and trypsin were preheated in a 37° C. water bath;
(3) the culture medium was removed in the cell culture flask and washed once with 1 mL of trypsin;
(4) 1 mL of trypsin was added to the cell culture flask, and the cell culture flask was shaken gently, and the trypsin was removed after full contact with the cell, and then the culture flask was placed into a 37° C. incubator containing 5% CO2 for about 1 minute;
(5) the cells were resuspended with 2 mL of cell culture medium, and about 0.01 mL of cell suspension was taken out for counting;
(6) the cell suspension was diluted with culture medium to a cell density required for plating of 2.5×10^4 cells per mL;
(7) 100 μL of culture medium was added to each well around the cell plate, and 80 μL of cell suspension was added to the other wells, and placed in a 37° C. incubator containing 5% CO2 for overnight culture.
(8) The required cell amount and culture medium were taken based on the new T75 culture flask for continued culture.
(1) the compound to be tested was prepared into […] solution with DMSO;
(2) 9 concentration gradients and 3-fold dilutions were performed on the compounds, that is, a double-duplicate experiment was set from 6 mmol to 2.7 μmol, and 78 μL of culture medium was added to the middle plate, and then 2 μL of gradient diluted compound per well was transferred to the middle plate according to the corresponding position, and after mixing, 20 μL per well was transferred to the cell plate, and the final concentration of the compound transferred to the cell plate was 30 μmol to 13.7 nmol. The cell plate was placed in a carbon dioxide incubator and cultured for another 3 days.
(1) CTG was added and the plate was read: 20 μL of CellTiter Glo was added to each well of the cell plate, and the cell plate was shaken in the dark for 10 min;
(2) plates were read on Victor Nivo.
The equation (Sample-Min)/(Max-Min)*100% was used to convert the original data into inhibition rate, and the IC50 value could be obtained by curve fitting with four parameters (obtained by “log (inhibitor) vs. response—variable slope” mode in GraphPad Prism).

Colo205 cells = experiment: Colo205 (BRAF V600E) antiproliferative activity experiment (CellTiter-glo); assay type: cell-based; conditions: Homo sapiens, COLO 205, 72 h, cultured 3 days
Method: Experimental Embodiment 4: Colo205 (BRAF^V600E) Antiproliferative Activity Experiment
Cell line COLO205 (purchased from Procell), RPMI1640 culture medium, penicillin/streptomycin antibiotics were purchased from Vicente, and fetal bovine serum was purchased from Biosera. CellTiter-glo (cell viability chemiluminescence detection reagent) reagent was purchased from Promega.
COLO205 cells were seeded in a white 96-well plate with […] of cell suspension per well containing 3000 of COLO205 cells. The cell plate was placed in a carbon dioxide incubator and cultured overnight. The compound to be tested was diluted 3-fold to the 9th concentration with a pipette, that is, diluted from […], and a double-duplicate experiment was set-up. 78 μmol of culture medium was added to the middle plate, then 2 μmol of gradient dilution compound per well was transferred to the middle plate according to the corresponding position, and 20 μmol of per well was mixed and transferred to the cell plate. The concentration of the compound transferred to the cell plate ranged from 1 μmol to 0.15 nmol. The cell plate was placed in a carbon dioxide incubator and cultured for 3 days. Another cell plate was prepared, and the signal value was read as the maximum value (max value in the following equation) on the day of administration to participate in data analysis. 25 μmol of cell viability chemiluminescence detection reagent was added to each well of the cell plate and incubated at room temperature for 10 minutes to stabilize the luminescence signal. A multi-marker analyzer reading was used. After the incubation of the cell plate added with the compound was finished, 25 μmol of cell viability chemiluminescence detection reagent was added to each well of the cell plate and incubated at room temperature for 10 minutes to stabilize the luminescence signal. A multi-marker analyzer reading was used.
The equation (Sample−Min)/(Max−Min)*100% was used to convert the original data into inhibition rate, and the IC50 value could be obtained by curve fitting with four parameters (obtained by “log (inhibitor) vs. response—variable slope” mode in GraphPad Prism).

[1] = test system: human lung cancer Calu-6 cell subcutaneous xenograft tumor; experiment: In vivo pharmacodynamic experiment, BALB/c nude mouse model of subcutaneous xenograft tumors of human lung cancer Calu-6 cells; conditions: 50 mg/kg oral (PO) once a day (QD), Calu-6 xenograft in BALB/c nude mice, vs solvent control; P<0.01
Method: Experimental Embodiment 7: In Vivo Pharmacodynamic Experiment of the BALB/c Nude Mouse Model of Subcutaneous Xenograft Tumors of Human Lung Cancer Calu-6 Cells
Age of arrival: 6 to 8 weeks old
Cells: Calu-6 cells of human lung cancer were cultured in vitro, and 0.2 Units/mL bovine insulin, 10% fetal bovine serum were added to EMEM culture medium in a 37° C. and 5% CO2 incubator for culture. Conventional digestion with trypsin-EDTA was performed twice a week for passage. When the cell saturation was 80%-90% and the number of the cells reached the requirement, and the cells were collected, counted, and seeded.
Cell inoculation: 0.2 mL of Calu-6 cell (mixed in a ratio of 1:1 with matrix gel) was subcutaneously inoculated on the right back of each mouse, and group administration was started when the average tumor volume reached […],
Tumor diameters were measured with vernier calipers twice a week. The calculation formula of tumor volume was: V=0.5a×b^2, and a and b represent the long and short diameters of the tumor, respectively.
The tumor inhibition efficacy of the compounds was evaluated by TGI (%) or relative tumor proliferation rate T/C (%). Relative tumor proliferation rate T/C (%)=TRTV/CRTV×100% (TRTV: RTV in the treatment group; CRTV: RTV in the negative control group). The relative tumor volume (RTV) was calculated according to the results of tumor measurement, and the formula was RTV=Vt/V0, wherein V0 was the tumor volume measured at the time of group administration (i.e., D0), and Vt was the tumor volume measured at a certain measurement, and TRTV and CRTV were taken on the same day.
TGI (%), reflecting the tumor growth inhibition rate. TGI (%)=[1−(average tumor volume at the end of administration in a treatment group−average tumor volume at the beginning of administration in this treatment group)/(average tumor volume at the end of treatment in a solvent control group−average tumor volume at the beginning of treatment in this solvent control group)]×100%.
Statistical analysis was based on the data of RTV at the end of the experiment, and SPSS software was used for analysis. One-way ANOVA was used for comparison between two groups, and the variance was uneven (there was significant difference in F value), and Games-Howell method was used to test, p<0.05 was considered a significant difference.

IC50 (HCT116 cells)	IC50 (Colo205 cells)	SMILES	TGI (tumor growth inhibition rate) [1]
0.105 µM	0.014 µM	[2H]C1([2H])CC(Nc2ncc(Cl)c(-c3ccc4c(c3)S(=O)(=O)N([C@H](C)C(=O)N[C@H](CO)c3cc(F)cc(OC)c3)C4)n2)CC([2H])([2H])O1 [Compound 9]	108%
0.123 µM	0.016 µM	COc1cc(F)cc([C@@H](CO)NC(=O)[C@@H](C)N2Cc3ccc(-c4nc(N[C@H]5CCOC[C@H]5F)ncc4Cl)cc3S2(=O)=O)c1 [Compound 11]	109%
0.138 µM	0.016 µM	COc1cc(F)cc([C@@H](CO)NC(=O)[C@@H](C)N2Cc3ccc(-c4nc(NC5CCOCC5)ncc4Br)cc3S2(=O)=O)c1 [Compound 3]	110%
0.103 µM	–	COc1cc(F)cc([C@@H](CO)NC(=O)[C@@H](C)N2Cc3ccc(-c4nc(NC5CCOCC5)ncc4Cl)cc3S2(=O)=O)c1 [Compound 1]	107%
